Broadly, the melting point is the temperature, or range, at which the solid turns liquid.

This passage reports melting point results from a melting point compilation (Tetko et al.; mined from patent text by program, amines drawn as free bases though some values may be those of a salt).

On to `C=C1C(=O)c2cc(C)ccc2OC1c1ccccc1` (centres undefined), for which the melting point was in the range of 57 to 63 °C.

Turning to `CCCCCCc1cc2c(cc1OCCCC(=O)O)C(=O)CCC2`, the melting point is 81 °C.

`COc1ccc2c(c1)CN(C(N)=O)N=C2Cc1c(Cl)cncc1Cl` yielded a melting point above 230 °C.

`Cc1cccc(-c2nc(C(C)(C)C)n(C)n2)n1` showed a melting point of 106 °C.

On to `CCOC(=O)C1CCC2(C)C(=CC(O)C3C2CCC2(C)C(O)CCC32)C1` (centres undefined), for which the melting point was in the range of 170 to 171 °C.

In turn, `CC(=O)OC1CSC(Oc2ccc3ncsc3c2)C(OC(C)=O)C1OC(C)=O` (centres undefined) showed a melting point of 166 °C.

Regarding `CCCCCCCCCCCCCC(=O)NCCOCCn1c(CCOC)nc2c(N)nc3ccccc3c21`, the melting point is 85 to 87 °C.

Regarding `Cc1cc(Cl)ccc1OCC(=O)N1Cc2ccc(C(=O)c3ccc(C(C)(C)C)cc3)n2Cc2ccccc21`, the melting point stood at 168 °C.

`CC1=C(C)CC(C(=O)Nc2ccccc2)C(C(=O)O)C1` (centres undefined): the melting point is 155 to 156 °C.

As to `Cn1cc(C2=C(c3cn(C)c4ccc([N+](=O)[O-])cc34)C(=O)NC2=O)c2ccccc21`, the melting point fell in the range of 282 to 284 °C.

`O=C1NC(=Cc2c[nH]c3ccccc23)C(=O)N1Cc1cc(C(F)(F)F)cc(C(F)(F)F)c1` had a melting point of 151 to 153 °C.

For the compound `COc1c(Cl)ccc(Cl)c1C(=O)NN`, the melting point was 144 to 145 °C.

`Cc1cccc(O[C@@H]2CN(Cc3ccccc3)C[C@H]2O)c1C` (relative stereo) gave a melting point of 100 to 104 °C.

`FC(F)c1ncnc(-c2ccc(Cl)cc2Cl)c1Cl`: the melting point lay within 55 to 56 °C.

`Cc1ccc(N2CCN(C)CC2)c2c1CC[C@@H](NC(=O)c1ccc(Cl)cc1)C2` gave a melting point of 210 to 212 °C.

`COc1ccccc1N1CCN(CCCOc2ccc(-c3nnco3)cc2)CC1`: the melting point fell in the range of 139 to 140 °C.

In the case of `CCc1cn(C)cc(-c2cccc(C(F)(F)F)c2)c1=O`, the melting point lay in the range of 95.5 to 96.5 °C.

In turn, `Oc1nc(-c2ccc(F)cc2)sc1-c1ccccc1` returned a melting point of 231 to 233 °C.

Consider `CCC(=O)N1CCC(NC(=O)Nc2ccc(Cl)cc2)CC1`, for which the melting point lay in the range of 225 to 226 °C.

Regarding `CN(C)CCNC(=O)NCc1ccc2c(c1)-c1[nH]nc(-c3ccsc3)c1C2`, the melting point was in the range of 247 to 249 °C.

`CCCCn1nc(C=O)nc1Cc1ccc(-c2ccccc2-c2nnn[nH]2)nc1` came in with a melting point of 167 to 168 °C.

Take `COC(=O)c1ccc2c(Cl)ccnc2c1`: the melting point lay in the range of 118 to 119 °C.

In turn, `COc1nc2cc(Cl)c(Cl)c(N3NN=CC3CCO)c2nc1OC` (centres undefined) displayed a melting point of 212 to 214 °C.

`C#Cc1cnn2c(C(F)(F)F)cc(-c3ccc(Cl)cc3)nc12` yielded a melting point of 102 to 103 °C.

The compound `COc1cc(N)c([N+](=O)[O-])cc1NCCO` yielded a melting point of 165 °C.

As for `CC(C)Cc1n[nH]c2c1c(=O)n(-c1ccccc1)c1ncccc21`, the melting point is 217 to 220 °C.

In the case of `CC(c1oc2ccccc2c(=O)c1-c1cccc(F)c1)n1nc(-c2ccc(Cl)s2)c2c(N)ncnc21` (centres undefined), the melting point is 226 to 229 °C.

As to `CN1C(=O)C(C(=O)Nc2ccc(Cl)cc2Oc2c(Cl)cccc2Cl)C(=O)N(C)C1=S`, the melting point fell in the range of 254 to 257 °C.

In turn, `CCOC(=O)C1=C(CS(=O)CCN)NC(C)=C(C(=O)OC)C1c1cccc([N+](=O)[O-])c1` (centres undefined) displayed a melting point of 170 to 172 °C.

`COc1ccc(COc2cccc(C(=O)Nc3ccc(C#N)cc3)c2)cc1` displayed a melting point of 147 to 148 °C.

On to `O=C(CC1CCC2(CC1)OCCO2)N1CCN(c2ccccn2)CC1`, for which the melting point lay in the range of 113 to 116 °C.

`CCCCn1c(=O)c2cc(C(=O)O)cn2c2cc(Cl)ccc21` returned a melting point of 275 to 276 °C.

For the compound `CS(=O)(=O)N1CCC(Nc2nc(Nc3ccc(F)c(CN4CCOCC4)c3)nc(OCC(F)(F)F)n2)CC1`, the melting point lay within 96 to 98 °C.

The compound `COC(=O)c1c(C)nc2c(c1N)c1c(n2Cc2ccc(OC)cc2)CCCC1` returned a melting point of 130 to 131 °C.

On to `c1ccc(OCn2c(Nc3cnon3)nc3ccccc32)cc1`, for which the melting point lay within 171 to 173 °C.

Turning to `COC1CCN(c2nnc(-c3ccc(C)cc3)c(-c3ccc(C)cc3)n2)CC1`, the melting point lay in the range of 120 to 121 °C.

`CCc1cccc2c3c([nH]c12)C(CC)(CC=N)OCC3` (centres undefined) came in with a melting point of 101 to 103 °C.

`Nc1n[nH]c2cc(C(=O)C=NO)ccc12`: the melting point was 199 to 201 °C.

Regarding `CCCCC/C=C\C/C=C\C/C=C\C/C=C\CCCC(=O)N[C@@H](C)C(=O)N[C@H](CCC(=O)O)C(=O)O`, the melting point turned out to be 90 °C.

The compound `COc1ccc(C2=NN(C3CCN(C(=O)CCSCCNC(=O)OC(C)(C)C)CC3)C(=O)[C@@H]3CC=CC[C@H]23)cc1OC` registered a melting point of 132 to 134 °C.

The compound `CC1C(S(=O)(=O)c2ccccc2)CCCC12OCCO2` (centres undefined) showed a melting point of 76 to 77 °C.

`Cc1ccc(-c2nccc3c(CCl)cccc23)cc1` showed a melting point of 120 °C.

Regarding `CCCCc1ccc2nc(NC(=O)c3csc(CNC(=O)OC(C)(C)C)n3)sc2c1`, the melting point fell in the range of 143 to 144 °C.

`Cc1ccc2cc(-c3cccc4ccccc34)nc(N3CCN(C)CC3)c2c1`: the melting point amounted to 150 °C.

With `C=C(C)C(=O)OCCOC(Cl)C(Cl)(Cl)Cl` (centres undefined), the melting point is 44 to 45 °C.

The compound `O=C1C2CCCCC2C(=O)N1c1ccncc1` (centres undefined) showed a melting point of 165 to 168 °C.

Regarding `COc1ccc(-c2c(Cl)c(CN3C(=O)CCC3=O)nc3sc4c(c23)CCNC4)cc1`, the melting point lay in the range of 225 to 226 °C.

With `CC(C)N1C(=O)C2CC2(c2ccc(N)cc2)C1=O` (centres undefined), the melting point fell in the range of 160 to 163 °C.

`O=S(CBr)c1ccc(Cl)cc1` (centres undefined): the melting point was 100 °C.

In turn, `CC(NC(=O)CCc1ccc(C(C)(C)C)cc1)c1ccc(NS(C)(=O)=O)c(F)c1` (centres undefined) yielded a melting point of 152 to 154 °C.

`N#COc1ccc(C=CC(=O)c2ccc(OC#N)cc2)cc1`: the melting point fell in the range of 171 to 173 °C.

`CCCCCCCCOc1ccc(-c2ccc(O)cc2)cc1` yielded a melting point of 154 °C.

Compound `O=C1Nc2ccccc2C12COc1ccc3c(c12)OCCO3` (centres undefined) displayed a melting point of 259 to 261 °C.

In the case of `C[C@H](c1ccc(F)cc1)N1CCN(c2cc(Oc3cccc4ncc(N)nc34)ncn2)CC1`, the melting point is 118 °C.

In the case of `CCOC(=O)CN[C@H]1CSc2ccccc2N(CC(=O)O)C1=O`, the melting point is 223 to 226 °C.

The compound `O=[N+]([O-])c1cc(CS)cc(O)c1O` registered a melting point of 179 to 185 °C.

Take `N#Cc1cnc2c(=O)c3ccccc3oc2c1`: the melting point was in the range of 220 to 226 °C.

The compound `COc1ccc(C(=O)OC2(c3nc4ccccc4s3)C=CC(=O)C=C2)cc1` gave a melting point of 137 °C.

Compound `N#CCSc1c[nH]c2ccccc12` came in with a melting point of 52 to 54.5 °C.

Compound `Nc1c2c(nc3cc(Cl)ccc13)CCCC2=O` came in with a melting point of 285 to 287 °C.

On to `Oc1ccc2c(CCCCN3CC=C(c4cccs4)CC3)c[nH]c2c1`, for which the melting point is 181 °C.

In turn, `OC(c1ccccc1)c1ccccc1CNC(=S)NCCc1ccccc1` (centres undefined) returned a melting point of 117 to 119 °C.

Compound `CCCCOCCOc1ccc(-c2ccc3c(c2)C=C(C(=O)Nc2ccc(C(O)c4cc(C)ccn4)cc2)CCN3C(=O)C(F)(F)F)cc1` (centres undefined) returned a melting point of 101 to 105 °C.

Compound `O=C1OC2(CCN(C(=O)Nc3cnc(-c4ccccc4)cn3)CC2)c2ccc(F)cc21` gave a melting point of 236 to 238 °C.
